Measurements: ChEMBL document CHEMBL4190385, “Benzofuran-pyran hybrids: A new class of potential bone anabolic agents” (Bioorg Med Chem Lett, 2018)
Calls of active or inactive are those of the source. The calls are words filed in the database; no cut-off is given here.

Assays:
Calvarial osteoblast [1] = experiment: Stimulation of osteoblast differentiation in rat calvarial osteoblasts assessed as increase in ALP activity at 1 pM to 100 uM using p-nitrophenylphosphate substrate incubated for 48 hrs by colorimetry; type: functional, cell-based
Calvarial osteoblast [2] = experiment: Cytotoxicity in rat calvarial osteoblasts assessed as reduction in cell viability at 1 pM to 1 uM incubated for 48 hrs by MTT assay; type: cell-based
Calvarial osteoblast [3] = experiment: Stimulation of mineralization in rat calvarial osteoblasts assessed as increase in calcium nodules at 100 pM by Alizarin red S staining based photography; type: functional, cell-based
Calvarial osteoblast [4] = experiment: Stimulation of osteoblast differentiation in rat calvarial osteoblasts assessed as increase in ALP activity at 100 nM using p-nitrophenylphosphate substrate incubated for 48 hrs by colorimetry; type: functional, cell-based
Calvarial osteoblast [5] = experiment: Stimulation of mineralization in rat calvarial osteoblasts assessed as increase in calcium nodules at 10 nM by Alizarin red S staining based photography; type: functional, cell-based
Calvarial osteoblast [6] = experiment: Increase in Runx-2 mRNA expression in rat calvarial osteoblasts at 10 nM incubated for 72 hrs by qPCR method; type: functional
Calvarial osteoblast [7] = experiment: Increase in BMP2 mRNA expression in rat calvarial osteoblasts at 10 nM incubated for 72 hrs by qPCR method; type: functional
Calvarial osteoblast [8] = experiment: Increase in COL1 mRNA expression in rat calvarial osteoblasts at 10 nM incubated for 72 hrs by qPCR method; type: functional
[9] = Increase in Runx-2 mRNA expression in Sprague-Dawley rat bone marrow stromal cells at 10 nM incubated for 7 days hrs by qPCR method; type: functional
[10] = Increase in Osx mRNA expression in Sprague-Dawley rat bone marrow stromal cells at 10 nM incubated for 7 days hrs by qPCR method; type: functional
[11] = Increase in BMP2 mRNA expression in Sprague-Dawley rat bone marrow stromal cells at 1 uM incubated for 7 days hrs by qPCR method; type: functional
[12] = Increase in BMP2 mRNA expression in Sprague-Dawley rat bone marrow stromal cells at 10 nM incubated for 7 days hrs by qPCR method; type: functional
Rattus norvegicus [13] = organism: Rattus norvegicus; experiment: Stimulation of mineralization in Sprague-Dawley rat bone marrow stromal cells assessed as increase in calcium nodules at 10 nM incubated for 18 days hrs by Alizarin red S staining based photography; type: functional
Rattus norvegicus [14] = organism: Rattus norvegicus; experiment: Stimulation of mineralization in Sprague-Dawley rat bone marrow stromal cells assessed as increase in calcium nodules at 1 uM incubated for 18 days hrs by Alizarin red S staining based photography; type: functional
Calvarial osteoblast [15] = experiment: Stimulation of mineralization in rat calvarial osteoblasts assessed as increase in calcium nodules at 10 pM by Alizarin red S staining based photography; type: functional, cell-based
Calvarial osteoblast [16] = experiment: Stimulation of osteoblast differentiation in rat calvarial osteoblasts assessed as increase in ALP activity at 1 uM using p-nitrophenylphosphate substrate incubated for 48 hrs by colorimetry; type: functional, cell-based
Calvarial osteoblast [17] = experiment: Stimulation of mineralization in rat calvarial osteoblasts assessed as increase in calcium nodules at 1 uM by Alizarin red S staining based photography; type: functional, cell-based

Structure (SMILES)	Activity (Calvarial osteoblast [1])	Activity (Calvarial osteoblast [2])	Activity (Calvarial osteoblast [3])	Activity (Calvarial osteoblast [5])	also measured
CCc1cc(C2C(C#N)=C(N)OC3=C2C(=O)CC(C)(C)C3)cc2cc(C(=O)c3ccc(OC)cc3)oc12 (centres undefined)	Active	Non-Toxic	inactive		
COc1ccc(C(=O)c2cc3cc(C4C(C#N)=C(N)OC5=C4C(=O)CC(C)(C)C5)cc(C)c3o2)cc1 (centres undefined)	Active	Non-Toxic		Active	Activity (Calvarial osteoblast [4]): Active; fold change (FC) (Calvarial osteoblast [6]): 2.4; fold change (FC) (Calvarial osteoblast [7]): 2.2; fold change (FC) (Calvarial osteoblast [8]): 1.8; fold change (FC) [9]: 2; fold change (FC) [10]: 3; fold change (FC) [11]: 1.8; fold change (FC) [12]: 2.8; Activity (Rattus norvegicus [13]): Active; Activity (Rattus norvegicus [14]): Active
CC1(C)CC(=O)C2=C(C1)OC(N)=C(C#N)C2c1cc(C(C)(C)C)c2oc(C(=O)c3ccc(Cl)cc3)cc2c1 (centres undefined)	Active	Non-Toxic			Activity (Calvarial osteoblast [15]): inactive
COc1ccc(C(=O)c2cc3cc(C4C(C#N)=C(N)OC5=C4C(=O)CC(C)(C)C5)cc(C(C)(C)C)c3o2)cc1 (centres undefined)	Active	Non-Toxic	inactive		
Cc1ccc(C(=O)c2cc3cc(C4C(C#N)=C(N)OC5=C4C(=O)CC(C)(C)C5)cc(C)c3o2)cc1 (centres undefined)	Active	Non-Toxic		inactive	Activity (Calvarial osteoblast [16]): Active
Cc1ccc(C(=O)c2cc3cc(C4C(C#N)=C(N)OC5=C4C(=O)CC(C)(C)C5)cc(C(C)(C)C)c3o2)cc1 (centres undefined)	Active	Non-Toxic			Activity (Calvarial osteoblast [17]): Active
